Among the data in patent US20230143604A1, “QW DOSING OF GIP RECEPTOR AGONIST PEPTIDE COMPOUNDS AND USES THEREOF” (TAKEDA PHARMACEUTICAL COMPANY LIMITED, priority 2020, published 2023) are solubility values, retold here.

Starred links: 1 amine or outer side, 2 acyl side, 3 side chain; linkers in the order of their positions; H or OH if unused. Non-standard residues stand in square brackets, D forms with d. Residues, ends and D or L forms follow the SMILES beside them. Groups on a side chain read outwards from the residue. *: point of attachment. C18 diacid = O=C(O)CCCCCCCCCCCCCCCCC(=O)*; γGlu = O=C(O)[C@H](CCC(=O)[*:2])N[*:1]; NMeY = CN[C@@H](Cc1ccc(O)cc1)C(=O)O; AEEA = NCCOCCOCC(=O)O; Aib = CC(C)(N)C(=O)O

The nature of this data set: Solubility in phosphate buffer pH 7.4. An outline of the steps:
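3 mg of peptide treated with 100 μL portions of 200 mM phosphate buffer pH 7.4, sonicating/vortexing up to 1 min, with further buffer added until fully dissolved. Solubility then quantified by HPLC.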

As usually defined, the solubility is how much of the substance goes into solution per volume. Lower therefore signals little dissolved substance. For the setting “pH 7.4, aqueous buffer, pH 7.4 Phosphate Buffer - Solubility, 200 mM Phosphate buffer pH 7.4”, `CC[C@H](C)[C@H](NC(=O)[C@H](CO)NC(=O)[C@H](Cc1ccc(O)cc1)NC(=O)[C@H](CC(=O)O)NC(=O)[C@H](CO)NC(=O)[C@@H](NC(=O)[C@H](Cc1ccccc1)NC(=O)[C@@H](NC(=O)CNC(=O)[C@H](CCC(=O)O)NC(=O)C(C)(C)NC(=O)[C@H](Cc1ccc(O)cc1)NC)[C@@H](C)O)[C@@H](C)CC)C(=O)N[C@@H](C)C(=O)N[C@@H](CCCCNC(=O)CNC(=O)CNC(=O)CNC(=O)CNC(=O)CNC(=O)CCCCCCCCCCCCCCCCC(=O)O)C(=O)N[C@@H](CC(=O)O)C(=O)N[C@@H](CCCNC(=N)N)C(=O)NC(C)(C)C(=O)N[C@@H](C)C(=O)N[C@@H](CCC(N)=O)C(=O)NC(C)(C)C(=O)N[C@@H](CC(N)=O)C(=O)N[C@@H](Cc1ccccc1)C(=O)N[C@H](C(=O)N[C@@H](CC(N)=O)C(=O)N[C@@H](Cc1c[nH]c2ccccc12)C(=O)N[C@@H](CC(C)C)C(=O)N[C@@H](CC(C)C)C(=O)N[C@@H](C)C(=O)N[C@@H](CCC(N)=O)C(=O)N[C@@H](CO)C(=O)N1CCC[C@H]1C(=O)N[C@@H](CO)C(=O)N[C@@H](CO)C(=O)NCC(=O)N[C@@H](C)C(=O)N1CCC[C@H]1C(=O)N1CCC[C@H]1C(=O)N1CCC[C@H]1C(=O)N[C@@H](CO)C(N)=O)C(C)C` [Compound 273] gave a solubility of at least 6 mg/mL. Take `CC[C@H](C)[C@H](NC(=O)[C@H](CO)NC(=O)[C@H](Cc1ccc(O)cc1)NC(=O)[C@H](CC(=O)O)NC(=O)[C@H](CO)NC(=O)[C@@H](NC(=O)[C@H](Cc1ccccc1)NC(=O)[C@@H](NC(=O)CNC(=O)[C@H](CCC(=O)O)NC(=O)C(C)(C)NC(=O)[C@H](Cc1ccc(O)cc1)NC)[C@@H](C)O)[C@@H](C)CC)C(=O)N[C@@H](C)C(=O)N[C@@H](CC(C)C)C(=O)N[C@@H](CC(=O)O)C(=O)N[C@@H](CCCNC(=N)N)C(=O)N[C@H](C(=O)N[C@@H](Cc1c[nH]cn1)C(=O)N[C@@H](CCC(N)=O)C(=O)N[C@@H](CCCCNC(=O)COCCOCCNC(=O)COCCOCCNC(=O)CC[C@H](NC(=O)CCCCCCCCCCCCCCCCC(=O)O)C(=O)O)C(=O)N[C@@H](CC(N)=O)C(=O)N[C@@H](Cc1ccccc1)C(=O)N[C@H](C(=O)N[C@@H](CC(N)=O)C(=O)N[C@@H](Cc1c[nH]c2ccccc12)C(=O)N[C@@H](CC(C)C)C(=O)N[C@@H](CC(C)C)C(=O)N[C@@H](C)C(=O)N[C@@H](CCC(N)=O)C(=O)N[C@@H](CCCCN)C(=O)O)C(C)C)[C@@H](C)CC` [Compound 247] (H-[NMeY][Aib]EGTFISDYSIALDRIHQK([AEEA-AEEA-γGlu-C18 diacid])NFVNWLLAQK-OH; C-terminus assumed): the solubility (pH 7.4, aqueous buffer) was at least 9.9 mg/mL.

For the molecule `CC[C@H](C)[C@H](NC(=O)[C@H](CO)NC(=O)[C@H](Cc1ccc(O)cc1)NC(=O)[C@H](CC(=O)O)NC(=O)[C@H](CO)NC(=O)[C@@H](NC(=O)[C@H](Cc1ccccc1)NC(=O)[C@@H](NC(=O)CNC(=O)[C@H](CCC(=O)O)NC(=O)C(C)(C)NC(=O)[C@H](Cc1ccc(O)cc1)NC)[C@@H](C)O)[C@@H](C)CC)C(=O)N[C@@H](C)C(=O)N[C@@H](CC(C)C)C(=O)N[C@@H](CC(=O)O)C(=O)N[C@@H](CCCNC(=N)N)C(=O)NC(C)(C)C(=O)N[C@@H](C)C(=O)N[C@@H](CCC(N)=O)C(=O)NC(C)(C)C(=O)N[C@@H](CCCCNC(=O)COCCOCCNC(=O)COCCOCCNC(=O)CC[C@H](NC(=O)CC[C@H](NC(=O)CCCCCCCCCCCCCCCCC(=O)O)C(=O)O)C(=O)O)C(=O)N[C@@H](Cc1ccccc1)C(=O)N[C@H](C(=O)N[C@@H](CC(N)=O)C(=O)N[C@@H](Cc1c[nH]c2ccccc12)C(=O)N[C@@H](CC(C)C)C(=O)N[C@@H](CC(C)C)C(=O)N[C@@H](C)C(=O)N[C@@H](CCC(N)=O)C(=O)N[C@@H](CO)C(=O)N1CCC[C@H]1C(=O)NCC(=O)O)C(C)C` [Compound 86] (H-[NMeY][Aib]EGTFISDYSIALDR[Aib]AQ[Aib]K([AEEA-AEEA-γGlu-γGlu-C18 diacid])FVNWLLAQSPG-OH), the solubility reads like this: (pH 7.4) at least 15 mg/mL; (pH 7.4, aqueous buffer) at least 30 mg/mL.
